# Measured values as given in PubChem BioAssay AID2060622 (Molecular Pharmacology Branch, DTP, NCI, 2025).
# System: 242566-281-R-J2-PDC complex spheroid viability
# Experiment: Anticancer human tumor 242566-281-R-J2-PDC patient-derived pancreatic carcinoma cell line growth inhibition [CLK]
# Conditions: for IC50: curve of first compound; for viability, T/C: stronger effect = lower value
# Procedure, shortened: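 Multi-cell-type spheroids combined patient-derived tumor cells with HUVEC endothelial cells and human mesenchymal stem cells. Paired agents were dosed in half-log steps down from about clinical Cmax, or from 10 microM where Cmax was unknown.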
# [1] = second compound 0.0316 µM, first compound 0.0316 µM
# [2] = second compound 0.0316 µM, first compound 0.1 µM
# [3] = second compound 0.0316 µM, first compound 0.316 µM
# [4] = second compound 0.0316 µM, first compound 1 µM
# [5] = second compound 0.1 µM, first compound 0.0316 µM
# [6] = second compound 0.1 µM, first compound 0.1 µM
# [7] = second compound 0.1 µM, first compound 0.316 µM
# [8] = second compound 0.1 µM, first compound 1 µM
# [9] = second compound 0.316 µM, first compound 0.0316 µM
# [10] = second compound 0.316 µM, first compound 0.1 µM
# [11] = second compound 0.316 µM, first compound 0.316 µM
# [12] = second compound 0.316 µM, first compound 1 µM
# [13] = second compound 1 µM, first compound 0.0316 µM
# [14] = second compound 1 µM, first compound 0.1 µM
# [15] = second compound 1 µM, first compound 0.316 µM
# [16] = second compound 1 µM, first compound 1 µM
# [17] = second compound 3.16 µM, first compound 0.0316 µM
# [18] = second compound 3.16 µM, first compound 0.1 µM
# [19] = second compound 3.16 µM, first compound 0.316 µM
# [20] = second compound 3.16 µM, first compound 1 µM
# [21] = second compound 10 µM, first compound 0.0316 µM
# [22] = second compound 10 µM, first compound 0.1 µM
# [23] = second compound 10 µM, first compound 0.316 µM
# [24] = second compound 10 µM, first compound 1 µM
# 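Also: spheroids exposed to compounds for 7 days before readout.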
# 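For viability, T/C in this document: 100% = DMSO vehicle control wells.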
structure (smiles),measurement,setting,value
C=CC(=O)Nc1cc(Nc2nccc(-c3cn(C)c4ccccc34)n2)c(OC)cc1N(C)CCN(C)C + CNC(=O)c1ccc(Nc2nc(OC3CCCC3)c3c(-c4ccc5nc(C)oc5c4)c[nH]c3n2)c(OC)c1,IC50,second compound 0.0316 µM,> 300 nM
same,IC50,second compound 0.1 µM,> 300 nM
same,IC50,second compound 0.316 µM,> 300 nM
same,IC50,second compound 1 µM,> 300 nM
same,IC50,second compound 3.16 µM,2.72 nM
same,IC50,second compound 10 µM,3.17 nM
same,"viability, T/C","second compound 0.0316 µM, first compound 0.000949 µM",83.7%
same,"viability, T/C","second compound 0.0316 µM, first compound 0.003 µM",97%
same,"viability, T/C","second compound 0.0316 µM, first compound 0.00949 µM",101%
same,"viability, T/C","second compound 0.0316 µM, first compound 0.03 µM",108%
same,"viability, T/C","second compound 0.0316 µM, first compound 0.0949 µM",110%
same,"viability, T/C","second compound 0.0316 µM, first compound 0.3 µM",92.8%
same,"viability, T/C","second compound 0.1 µM, first compound 0.000949 µM",96.1%
same,"viability, T/C","second compound 0.1 µM, first compound 0.003 µM",81.7%
same,"viability, T/C","second compound 0.1 µM, first compound 0.00949 µM",80.1%
same,"viability, T/C","second compound 0.1 µM, first compound 0.03 µM",99.5%
same,"viability, T/C","second compound 0.1 µM, first compound 0.0949 µM",95.5%
same,"viability, T/C","second compound 0.1 µM, first compound 0.3 µM",81.4%
same,"viability, T/C","second compound 0.316 µM, first compound 0.000949 µM",89.4%
same,"viability, T/C","second compound 0.316 µM, first compound 0.003 µM",76%
same,"viability, T/C","second compound 0.316 µM, first compound 0.00949 µM",72.2%
same,"viability, T/C","second compound 0.316 µM, first compound 0.03 µM",77.6%
same,"viability, T/C","second compound 0.316 µM, first compound 0.0949 µM",81.4%
same,"viability, T/C","second compound 0.316 µM, first compound 0.3 µM",80.2%
same,"viability, T/C","second compound 1 µM, first compound 0.000949 µM",69.7%
same,"viability, T/C","second compound 1 µM, first compound 0.003 µM",59%
same,"viability, T/C","second compound 1 µM, first compound 0.00949 µM",58.9%
same,"viability, T/C","second compound 1 µM, first compound 0.03 µM",61.8%
same,"viability, T/C","second compound 1 µM, first compound 0.0949 µM",63.7%
same,"viability, T/C","second compound 1 µM, first compound 0.3 µM",57.5%
same,"viability, T/C","second compound 3.16 µM, first compound 0.000949 µM",55.9%
same,"viability, T/C","second compound 3.16 µM, first compound 0.003 µM",50%
same,"viability, T/C","second compound 3.16 µM, first compound 0.00949 µM",45.7%
same,"viability, T/C","second compound 3.16 µM, first compound 0.03 µM",51.9%
same,"viability, T/C","second compound 3.16 µM, first compound 0.0949 µM",46.4%
same,"viability, T/C","second compound 3.16 µM, first compound 0.3 µM",48.8%
same,"viability, T/C","second compound 10 µM, first compound 0.000949 µM",49.1%
same,"viability, T/C","second compound 10 µM, first compound 0.003 µM",51.2%
same,"viability, T/C","second compound 10 µM, first compound 0.00949 µM",51.1%
same,"viability, T/C","second compound 10 µM, first compound 0.03 µM",47.7%
same,"viability, T/C","second compound 10 µM, first compound 0.0949 µM",43.1%
same,"viability, T/C","second compound 10 µM, first compound 0.3 µM",44.9%
CC(Nc1ccc2c(c1)OCCn1cc(N3C(=O)OCC3C(F)F)nc1-2)C(N)=O (stereo unspecified) + CNC(=O)c1ccc(Nc2nc(OC3CCCC3)c3c(-c4ccc5nc(C)oc5c4)c[nH]c3n2)c(OC)c1,IC50,second compound 0.0316 µM,2140 nM
same,IC50,second compound 0.1 µM,1770 nM
same,IC50,second compound 0.316 µM,690 nM
same,IC50,second compound 1 µM,92.4 nM
same,IC50,second compound 3.16 µM,< 31.6 nM
same,IC50,second compound 10 µM,< 31.6 nM
same,"viability, T/C",[1],84.6%
same,"viability, T/C",[2],91.4%
same,"viability, T/C",[3],75.9%
same,"viability, T/C",[4],62.4%
same,"viability, T/C","second compound 0.0316 µM, first compound 3.16 µM",44.4%
same,"viability, T/C","second compound 0.0316 µM, first compound 10 µM",30.6%
same,"viability, T/C",[5],100%
same,"viability, T/C",[6],96.5%
same,"viability, T/C",[7],70.4%
same,"viability, T/C",[8],62.2%
same,"viability, T/C","second compound 0.1 µM, first compound 3.16 µM",40.3%
same,"viability, T/C","second compound 0.1 µM, first compound 10 µM",28.2%
same,"viability, T/C",[9],82.3%
same,"viability, T/C",[10],77.6%
same,"viability, T/C",[11],59.6%
same,"viability, T/C",[12],44%
same,"viability, T/C","second compound 0.316 µM, first compound 3.16 µM",32.8%
same,"viability, T/C","second compound 0.316 µM, first compound 10 µM",21.6%
same,"viability, T/C",[13],63.9%
same,"viability, T/C",[14],47.2%
same,"viability, T/C",[15],38.5%
same,"viability, T/C",[16],26.8%
same,"viability, T/C","second compound 1 µM, first compound 3.16 µM",19.8%
same,"viability, T/C","second compound 1 µM, first compound 10 µM",14.2%
same,"viability, T/C",[17],44.4%
same,"viability, T/C",[18],32.9%
same,"viability, T/C",[19],27.5%
same,"viability, T/C",[20],22.8%
same,"viability, T/C","second compound 3.16 µM, first compound 3.16 µM",15.7%
same,"viability, T/C","second compound 3.16 µM, first compound 10 µM",11.6%
same,"viability, T/C",[21],41%
same,"viability, T/C",[22],33.6%
same,"viability, T/C",[23],28.2%
same,"viability, T/C",[24],20.3%
same,"viability, T/C","second compound 10 µM, first compound 3.16 µM",15.1%
same,"viability, T/C","second compound 10 µM, first compound 10 µM",10.6%
CCN1CCN(Cc2ccc(Nc3ncc(F)c(-c4cc(F)c5nc(C)n(C(C)C)c5c4)n3)nc2)CC1 + CNC(=O)c1ccc(Nc2nc(OC3CCCC3)c3c(-c4ccc5nc(C)oc5c4)c[nH]c3n2)c(OC)c1,IC50,second compound 0.0316 µM,> 1000 nM
same,IC50,second compound 0.1 µM,> 1000 nM
same,IC50,second compound 0.316 µM,> 1000 nM
same,IC50,second compound 1 µM,> 1000 nM
same,IC50,second compound 3.16 µM,> 1000 nM
same,IC50,second compound 10 µM,> 1000 nM
same,"viability, T/C","second compound 0.0316 µM, first compound 0.00316 µM",103%
same,"viability, T/C","second compound 0.0316 µM, first compound 0.01 µM",106%
same,"viability, T/C",[1],92%
same,"viability, T/C",[2],126%
same,"viability, T/C",[3],136%
same,"viability, T/C",[4],154%
same,"viability, T/C","second compound 0.1 µM, first compound 0.00316 µM",76.5%
same,"viability, T/C","second compound 0.1 µM, first compound 0.01 µM",109%
same,"viability, T/C",[5],95.7%
same,"viability, T/C",[6],104%
same,"viability, T/C",[7],122%
same,"viability, T/C",[8],153%
same,"viability, T/C","second compound 0.316 µM, first compound 0.00316 µM",91.6%
same,"viability, T/C","second compound 0.316 µM, first compound 0.01 µM",98%
same,"viability, T/C",[9],79.2%
same,"viability, T/C",[10],117%
same,"viability, T/C",[11],125%
same,"viability, T/C",[12],156%
same,"viability, T/C","second compound 1 µM, first compound 0.00316 µM",74.5%
same,"viability, T/C","second compound 1 µM, first compound 0.01 µM",86.8%
same,"viability, T/C",[13],84.8%
same,"viability, T/C",[14],96.2%
same,"viability, T/C",[15],134%
same,"viability, T/C",[16],142%
same,"viability, T/C","second compound 3.16 µM, first compound 0.00316 µM",63.2%
same,"viability, T/C","second compound 3.16 µM, first compound 0.01 µM",61%
same,"viability, T/C",[17],72.1%
same,"viability, T/C",[18],85.7%
same,"viability, T/C",[19],118%
same,"viability, T/C",[20],123%
same,"viability, T/C","second compound 10 µM, first compound 0.00316 µM",55.1%
same,"viability, T/C","second compound 10 µM, first compound 0.01 µM",59.8%
same,"viability, T/C",[21],75.4%
same,"viability, T/C",[22],80.5%
same,"viability, T/C",[23],101%
same,"viability, T/C",[24],124%
